Laboratory results published in patent US7098307B2, “Neo-tryptophan” (Mayo Foundation for Medical Education and Research, priority 1998, dated 2006).
Read-outs that look alike come from different tables or passages of the source. Square brackets hold non-standard residues; d marks the D form. Peptide text beside a SMILES is read from it. Ala(indol-4-yl) = N[C@@H](Cc1cccc2[nH]ccc12)C(=O)O; NMeR = CN[C@@H](CCCNC(=N)N)C(=O)O; Tle = CC(C)(C)[C@H](N)C(=O)O

Columns and labels:
human NTR1 [1] = target: T1, human NTR1 (Homo sapiens, UniProt P30989); assay: PI turnover ([3H]IP1) in intact CHO-K1 cells, human NTR1; type: cell-based
T1 construct: expressed in transfected cells; host or cells: CHO-K1
Protocol: (§1) To measure PI turnover, intact CHO-K1 cells were harvested at about 80% confluency. Cells were detached from the petri plates by removal of culture medium followed by incubation of the cellular monolayer for 20 minutes at 37° C. with gentle shaking in a modified Puck's D1 solution containing 2 mM EGTA. […] Briefly, intact CHO cells were prelabeled with D-myo-[^3H]inositol (18.3 Ci/mmol) in the presence of lithium chloride (final concentration, 10 mM). […] For the experiments described herein, the stimulation time was 30 minutes, and the number of CHO cells per assay tube was 1.5×10^5.

rat NTR1 [2] = target: T2, rat NTR1 (Rattus norvegicus, UniProt P20789); assay: PI turnover ([3H]IP1) in intact CHO-K1 cells, rat NTR1; type: cell-based
T2 construct: expressed in transfected cells; host or cells: CHO-K1
Protocol: as §1

5HT2A receptor = 5HT2A receptor (Homo sapiens, UniProt P28223); assay: Competitive binding with [3H]ketanserin, human brain tissue; details: for competition with labeled ketanserin for binding at the 5HT2A receptor: human brain tissue
[3] = Degradation in rat plasma (HPLC peak area); type: in vitro ADME; details: 25% plasma, 37° C., 0.5 mg/mL polypeptide, read-out: half-time, Plasma Rat (converted)
Description: (§2) For the degradation studies, data were plotted in linear form as a semi-log plot with SigmaPlot for Windows Version 4.00. Linear regression on these plots provided the parameters used to calculate the half-time (t1/2) for degradation of each polypeptide. The correlation coefficient (R) for the linear regression was taken as a measure of the goodness-of-fit.

[4] = Degradation in human plasma (HPLC peak area); type: in vitro ADME; details: 25% plasma, 37° C., 0.5 mg/mL polypeptide; for half-life at 0.5 mg/mL: human, read-out: half-time, Plasma Human (converted)
Description: as §2

adrenergic α1 receptors = assay: Radiolabeled competitive binding, human brain tissue, adrenergic α1
[5] = Body temperature (hypothermia) in rats; details: for Peak BT change / time of Peak BT change: rats; for induction of hypothermia: intraperitoneal administration (NT64L 1 mg/kg)
dopamine D2 receptors = target: T3, dopamine D2 receptors (Homo sapiens, UniProt P14416); assay: Radiolabeled competitive binding, human brain tissue, dopamine
T3 construct: Human brain tissue; from tissue; host or cells: human brain tissue

[6] = Hot plate test (antinociception, % MPE) in rats; details: for induction of antinociception (hot plate): intraperitoneal administration (NT64L 1 mg/kg); for ED50 % MPE: intraperitoneal
rat NTR1 [7] = target: T2, rat NTR1; assay: Competition binding with [3H]NT, membranes of CHO-K1 cells transfected with rat NTR1
Protocol: (§3) CHO-K1 cells were stably transfected with nucleic acid encoding either the human NTR1 or the rat NTR1, and cultured in 150 mm petri plates with 35 mL of Dulbecco-modified Eagle's medium containing 100 μM minimal essential medium nonessential amino acids (GIBCO) supplemented with 5% (v/v) FetalClone II bovine serum product (Hyclone Labs, Logan, Utah). CHO cells (subculture 9–19) were harvested at confluency. Briefly, the medium from each plate was removed by aspiration, and the cells washed with 6 mL of 50 mM Tris-HCl (pH 7.4) and resuspended in 5–10 mL of Tris-HCl by scraping the cells with a rubber spatula. The resuspended cells were placed into a centrifuge tube and collected by centrifugation at 300× g for five minutes at 4° C. in a GPR centrifuge (Beckman Instruments, Fullerton, Calif.). The cellular pellet (in 50 mM Tris-HCl, 1 mM EDTA, pH 7.4) was stored at […] until radioligand binding was performed.
(§4) The supernatant was decanted and discarded, and the cellular pellet was resuspended in 2 mL of Tris-HCl, 1 mM EDTA (pH 7.4) followed by homogenization with a Brinkmann Polytron at setting 6 for ten seconds. Centrifugation was repeated as above and the supernatant was decanted and discarded. The resulting final cellular pellet was resuspended in 50 mM Tris-HCl, lmM EDTA, 0.1% bovine serum albumin, and 0.2 mM bacitracin.
(§5) Incubation was at 20° C. for 30 minutes. Each reaction was terminated by addition of cold 0.9% NaCl (5×1.5 mL) followed by rapid filtration through a GF/B filter strip that had been pretreated with 0.2% polyethylenimine.

human NTR1 [8] = target: T1, human NTR1; assay: Competition binding with [3H]NT, membranes of CHO-K1 cells transfected with human NTR1
Protocol: as §3, §4, §5

[9] = Degradation in rat intestinal preparation; type: in vitro ADME; details: pH 7.4, 37° C., read-out: half-time, Rat Intestinal Preparation (converted)
Protocol: For intestinal preparations, rats were sacrificed by decapitation, and the small intestines removed. The tissue was washed with ice-cold PBS (10 mM, pH 7.4). About […] of intestinal tissue was added to about 10 mL of PBS and homogenized using a Brinkman polytron homogenizer (setting 6). After homogenization, 10 mL of PBS was added to 10 mL of the intestinal homogenate. […] The supernatant was removed and stored at −20° C. until testing. Immediately before incubation with the polypeptide, the intestinal preparation was filtered through a 0.2 μm filter. Testing procedures were similar to those for the plasma tests.
as §2

α2-adrenergic receptors = assay: Radiolabeled competitive binding, human brain tissue, adrenergic α2
Muscarinic = assay: Radiolabeled competitive binding, human brain tissue, muscarinic

Q: Which EC50 (human NTR1 [1]) does the source give for `CC(C)C[C@H](NC(=O)[C@@H](NC(=O)[C@H](Cc1cccc2[nH]ccc12)NC(=O)[C@@H]1CCCN1C(=O)[C@H](CCCNC(=N)N)NC(=O)[C@H](N)CCCCN)C(C)(C)C)C(=O)O` [NT66L] (H-[dK]RP[Ala(indol-4-yl)][Tle]L-OH; N-terminus and C-terminus assumed) here?
A: The EC50 was 10 nM.

Q: What about the EC50 (rat NTR1 [2]) of the same molecule?
A: Its EC50 is 1.9 ± 0.4 nM.

Q: And the Kd (5HT2A receptor)?
A: Its Kd is 8700 nM.

Q: And the “competition with labeled ketanserin for binding at the 5HT2A receptor” value (5HT2A receptor)?
A: The value was “found to compete”.

Q: What about the half-life at 0.5 mg/mL [3] of the same molecule?
A: The half-life at 0.5 mg/mL was 350 h.

Q: What about the half-life at 0.5 mg/mL [4] of the same molecule?
A: The half-life at 0.5 mg/mL was 170 h.

Q: What about the Kd (adrenergic α1 receptors; read-out: Kd adrenergic α1) of the same molecule?
A: Its Kd is 38000 nM.

Q: And the “Peak BT change” value ([5]; 1 mg/kg intraperitoneal)?
A: The value was −3.0 @ ° C.

Q: What about the “time of Peak BT change” value ([5]; 1 mg/kg intraperitoneal) of the same molecule?
A: The value was 240 min.

Q: What about the “Peak BT change” value ([5]; 5 mg/kg intraperitoneal) of the same molecule?
A: Its value is −5.0 @ ° C.

Q: And the “time of Peak BT change” value ([5]; 5 mg/kg intraperitoneal)?
A: Its value is 120 min.

Q: What about the induction of hypothermia [5] of the same molecule?
A: Its induction of hypothermia is “did induce”.

Q: What about the “ED50 BT” value ([5]; intraperitoneal, @ 30 min) of the same molecule?
A: Its value is 0.45 mg/kg.

Q: What about the “ED50 BT” value ([5]; intraperitoneal, @ 60 min) of the same molecule?
A: The value was 0.18 mg/kg.

Q: And the “peak reduction in body temperature (change)” value ([5]; oral, 20 mg/kg)?
A: Its value is −1.4 °C.

Q: What about the “time of peak reduction in body temperature” value ([5]; oral, 20 mg/kg) of the same molecule?
A: Its value is 30 min.

Q: And the Kd (dopamine D2 receptors)?
A: Its Kd is 56000 nM.

Q: And the “Peak % MPE” value ([6]; 1 mg/kg intraperitoneal, rats)?
A: Its value is 100% @.

Q: What about the “time of Peak % MPE” value ([6]; 1 mg/kg intraperitoneal, rats) of the same molecule?
A: The value was 120 min.

Q: What about the “Peak % MPE” value ([6]; 5 mg/kg intraperitoneal, rats) of the same molecule?
A: Its value is 100% @.

Q: And the “time of Peak % MPE” value ([6]; 5 mg/kg intraperitoneal, rats)?
A: The value was 330 min.

Q: And the “induction of antinociception (hot plate)” value [6]?
A: The value was “did induce”.

Q: What about the “ED50 % MPE” value ([6]; @ 30 min) of the same molecule?
A: Its value is 0.04 mg/kg.

Q: And the “ED50 % MPE” value ([6]; @ 60 min)?
A: The value was 0.02 mg/kg.

Q: What about the “peak % MPE value” ([6]; oral, 20 mg/kg) of the same molecule?
A: Its value is 40%.

Q: What about the “time of Peak % MPE” value ([6]; oral, 20 mg/kg) of the same molecule?
A: Its value is 60 min.

Q: And the Kd (rat NTR1 [7])?
A: Its Kd is 0.85 ± 0.09 nM.

Q: And the Kd (human NTR1 [8])?
A: The Kd was 3.7 ± 0.4 nM.

Q: With `CN[C@@H](CCCNC(=N)N)C(=O)N[C@@H](CCCCN)C(=O)N1CCC[C@H]1C(=O)N[C@@H](Cc1c[nH]c2ccccc12)C(=O)N[C@H](C(=O)N[C@@H](CC(C)C)C(=O)O)C(C)(C)C` [Eisai, reference compound] (H-[NMeR]KPW[Tle]L-OH; N-terminus and C-terminus assumed) as the molecule, how does the EC50 (human NTR1 [1]) read?
A: The EC50 was 300 nM.

Q: And the “weaker at the human NT receptor than at the rat NT receptor, PI turnover” value (human NTR1 [1])?
A: Its value is about 100 fold.

Q: What about the EC50 (rat NTR1 [2]) of the same molecule?
A: The EC50 was 3.1 nM.

Q: And the half-life at 0.5 mg/mL [4]?
A: Its half-life at 0.5 mg/mL is 460 h.

Q: And the “Peak BT change” value ([5]; 1 mg/kg intraperitoneal)?
A: Its value is −2.9 @ ° C.

Q: What about the “time of Peak BT change” value ([5]; 1 mg/kg intraperitoneal) of the same molecule?
A: Its value is 60 min.

Q: And the induction of hypothermia [5]?
A: The induction of hypothermia was “did induce”.

Q: What about the “ED50 BT” value ([5]; intraperitoneal, @ 30 min) of the same molecule?
A: The value was 0.26 mg/kg.

Q: What about the “ED50 BT” value ([5]; intraperitoneal, @ 90 min) of the same molecule?
A: Its value is 0.12 mg/kg.

Q: What about the “peak reduction in body temperature” value ([5]; intraperitoneal, dose not restated) of the same molecule?
A: The value was “about 3 °C”.

Q: And the “time of Peak % MPE” value ([6]; 1 mg/kg intraperitoneal, rats)?
A: Its value is 90 min.

Q: What about the “induction of antinociception (hot plate)” value [6] of the same molecule?
A: Its value is “did induce”.

Q: What about the “ED50 % MPE” value ([6]; @ 30 min) of the same molecule?
A: The value was 0.42 mg/kg.

Q: What about the “ED50 % MPE” value ([6]; @ 90 min) of the same molecule?
A: Its value is 0.08 mg/kg.

Q: What about the “weaker at the human NT receptor compared to binding affinity at the rat receptor” value (human NTR1 [8]; binding) of the same molecule?
A: Its value is about 20 fold.

Q: And the half-life [9]?
A: Its half-life is 22 h.

Q: Which EC50 (human NTR1 [1]) does the source give for `CC[C@H](C)[C@H](NC(=O)[C@H](Cc1cccc2[nH]ccc12)NC(=O)[C@@H]1CCCN1C(=O)[C@H](CCCNC(=N)N)NC(=O)[C@H](N)CCCCN)C(=O)N[C@@H](CC(C)C)C(=O)O` [NT67L] (H-[dK]RP[Ala(indol-4-yl)]IL-OH; N-terminus and C-terminus assumed) here?
A: The EC50 was 0.83 nM.

Q: What about the “competition with labeled ketanserin for binding at the 5HT2A receptor” value (5HT2A receptor) of the same molecule?
A: Its value is “found to compete”.

Q: What about the half-life at 0.5 mg/mL [3] of the same molecule?
A: The half-life at 0.5 mg/mL was 130 h.

Q: What about the Kd (α2-adrenergic receptors) of the same molecule?
A: Its Kd is over 100000 nM.

Q: And the “half-time, Plasma Human” value [4]?
A: Its value is “about 96 hours”.

Q: What about the half-life at 0.5 mg/mL [4] of the same molecule?
A: Its half-life at 0.5 mg/mL is 96 h.

Q: What about the Kd (adrenergic α1 receptors; read-out: Kd adrenergic α1 receptors) of the same molecule?
A: Its Kd is 6900 nM.

Q: What about the “Peak BT change” value ([5]; 1 mg/kg intraperitoneal) of the same molecule?
A: The value was −1.8 @ ° C.

Q: What about the “time of Peak BT change” value ([5]; 1 mg/kg intraperitoneal) of the same molecule?
A: The value was 120 min.

Q: And the induction of hypothermia [5]?
A: Its induction of hypothermia is “did induce”.

Q: What about the Kd (dopamine D2 receptors) of the same molecule?
A: Its Kd is over 100000 nM.

Q: And the “Peak % MPE” value ([6]; 1 mg/kg intraperitoneal, rats)?
A: Its value is 70% @.

Q: What about the “time of Peak % MPE” value ([6]; 1 mg/kg intraperitoneal, rats) of the same molecule?
A: Its value is 90 min.

Q: What about the “induction of antinociception (hot plate)” value [6] of the same molecule?
A: The value was “did induce”.

Q: What about the Kd (rat NTR1 [7]) of the same molecule?
A: Its Kd is 0.21 ± 0.02 nM.

Q: And the Kd (Muscarinic)?
A: Its Kd is over 100000 nM.

Q: And the Kd (human NTR1 [8])?
A: Its Kd is 0.61 ± 0.06 nM.

Q: And the “reduction in binding affinity compared to NT64L” value (human NTR1 [8]; NT receptor binding)?
A: Its value is “about six fold lower”.

Q: What about the half-life [9] of the same molecule?
A: The half-life was 0.77 h.
